Laboratory results from paper PMC5054527, “Mechanism of high affinity inhibition of the human urate transporter URAT1” (Scientific Reports, 2016).
Where a chain is given by its changes, count along the chain named. Read-outs that look alike come from different tables or passages of the source.

Columns and labels:
Assay in all cases: URAT1 uric acid transport activity assay
Format in all cases: cell-based
[1] = target: T1, r-V31L rURAT1 point mutant (Rattus norvegicus, UniProt Q3ZAV1, V31L)
T1 construct: expressed in transfected cells; host or cells: HEK-293T
T1 sequence (Q3ZAV1 1-553 V31L): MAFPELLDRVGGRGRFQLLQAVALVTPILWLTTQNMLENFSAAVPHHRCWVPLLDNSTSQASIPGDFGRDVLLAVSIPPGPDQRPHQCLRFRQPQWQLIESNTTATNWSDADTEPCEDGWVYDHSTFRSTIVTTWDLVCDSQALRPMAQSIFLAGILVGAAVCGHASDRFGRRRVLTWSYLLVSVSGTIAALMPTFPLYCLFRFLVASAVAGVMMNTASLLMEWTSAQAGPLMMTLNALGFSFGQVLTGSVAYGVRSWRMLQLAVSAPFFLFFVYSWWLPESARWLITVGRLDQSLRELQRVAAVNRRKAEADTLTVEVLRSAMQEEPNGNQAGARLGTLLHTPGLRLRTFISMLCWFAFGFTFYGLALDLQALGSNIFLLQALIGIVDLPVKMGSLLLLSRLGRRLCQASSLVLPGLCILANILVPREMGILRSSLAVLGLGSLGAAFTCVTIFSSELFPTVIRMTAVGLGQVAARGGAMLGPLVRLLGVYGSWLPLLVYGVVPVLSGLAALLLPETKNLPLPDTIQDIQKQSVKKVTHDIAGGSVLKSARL
Description: (§1) hURAT1 (GenBank BC053348.1) and rURAT1 (NCBI NM_001034943.1) genes were purchased from Origene Technologies, Inc. and subcloned into pCMV6/neo using NotI, creating pCMV6/neo-hURAT1 and pCMV6/neo-rURAT1. Mutants were produced by polymerase chain reaction (PCR) or site-directed mutagenesis using the QuikChange Lightning Multi Site-Directed Mutagenesis Kit (Agilent Technologies). […] Detailed methods are provided in Supplementary Methods, and primers are listed in Supplementary Table 1. […] Residues in rURAT1 and hOAT1 that correspond to the residues in hURAT1 were identified from aligned protein sequences (Supplementary Fig. 1)[50].
(§2) DNA (10 μg) was mixed with 30 μl of DreamFect Gold (Boca Scientific) in 2 ml OptiMem (Life Technologies). After 20 minutes, 18 ml of media containing 2 × 10^7 cells in suspension was added and mixed, and 200 μl per well were plated onto white clear-bottomed poly-D-lysine coated 96-well plates (BD Biosciences). The cells were assayed the following day.
(§3) Compounds were serially diluted into assay buffer and added to the cells for 5 minutes prior to addition of radiolabelled uric acid substrate. URAT1-expressing cells were incubated with 100 μM ^14C-uric acid for 10 minutes. […] Each treatment was measured in triplicate.
(§4) Unlabelled uric acid was prepared at a 20 mM stock just prior to use in a solution containing 20 mM dibasic potassium phosphate and 20 mM potassium hydroxide.
(§5) Nonlinear regression analyses using GraphPad Prism software were used to calculate the potency of URAT1 inhibitors (IC50 values) from log (inhibitor) versus response - variable slope (four parameters) equations. Statistical significance was assessed using Student’s unpaired t-tests.

[2] = target: T2, r-N35S rURAT1 point mutant (Rattus norvegicus, UniProt Q3ZAV1, N35S); conditions: for fold increased affinity of r-N35S compared to rURAT1: from IC50 values
T2 construct: expressed in transfected cells; host or cells: HEK-293T
T2 sequence (Q3ZAV1 1-553 N35S): T1 sequence (Q3ZAV1 1-553 V31L) with L31V, N35S
Description: as §1, §2, §3, §4, §5

[3] = target: T3, r-L18V rURAT1 point mutant (Rattus norvegicus, UniProt Q3ZAV1, L18V)
T3 sequence (Q3ZAV1 1-553 L18V): T1 sequence (Q3ZAV1 1-553 V31L) with L18V, L31V
Description: as §1, §2, §3, §4, §5

[4] = r-N35S, MES pH 5.5, 100 μM 14C-uric acid, read-out: IC50 (uric acid transport)

## CCc1oc2ccccc2c1C(=O)c1cc(Br)c(O)c(Br)c1 [benzbromarone]
[1]
  IC50: 17 ± 3.4 µM
[2]
  IC50: 17 ± 2.1 µM
[3]
  IC50: 24 ± 3.1 µM

## O=C(O)CSc1nnc(Br)n1-c1ccc(C2CC2)c2ccccc12 [lesinurad, 2-((5-bromo-4-(4-cyclopropylnaphthalen-1-yl)-4H-1,2,4-triazol-3-yl)thio)acetic acid]
[1]; r-V31L, MES pH 5.5, 100 μM 14C-uric acid, read-out: IC50 (uric acid transport)
  IC50: 85 ± 4.5 µM
[2]; [4]
  IC50: 57 ± 6.3 µM
[3]; r-L18V, MES pH 5.5, 100 μM 14C-uric acid, read-out: IC50 (uric acid transport)
  IC50: 78 ± 6.6 µM

## O=C1C(CC[S+]([O-])c2ccccc2)C(=O)N(c2ccccc2)N1c1ccccc1 (stereo not drawn) [sulfinpyrazone]
[1]; r-V31L, HEPES pH 7.3, 100 μM 14C-uric acid, read-out: IC50 (uric acid transport)
  IC50: 266 ± 70 µM
[2]
  fold increased affinity of r-N35S compared to rURAT1: 3.6 fold
[2]; r-N35S, HEPES pH 7.3, 100 μM 14C-uric acid, read-out: IC50 (uric acid transport)
  IC50: 189 ± 32 µM
[3]; r-L18V, HEPES pH 7.3, 100 μM 14C-uric acid, read-out: IC50 (uric acid transport)
  IC50: 971 ± 89 µM

## O=c1[nH]c(=O)c2[nH]c(=O)[nH]c2[nH]1 [uric acid]
[2]
  fold increased affinity of r-N35S compared to rURAT1: no phenotype
[2]; [4]
  IC50: 2660 µM
